The nature of data set [1]: Displacement of metals from EDTA complexes by physiological saline. Type of data set: physicochemical. On the procedure: Adding saline to the suspension of Ag4(EDTA), the suspension quickly precipitated a solid (AgCl). The precipitate was filtered off, washed with deionized water 4 times; and then dried in a vacuum oven at 50° C. in a dark flask to avoid exposure to direct light.
The displacement experiment described above was repeated for compounds 1-4 to provide the percent of the displacement of silver, copper, zinc from the EDTA complexes by physiological saline.

The test system of data set [2] is S. aureus 24-hour CDC biofilms. In words: Colonies after exposure of 24-hour CDC biofilms to EDTA compounds. Type of data set: cell-based.
Data set [3] has as its system P. aeruginosa 24-hour CDC biofilms. The description is as above. In kind it is cell-based.
A further data set concerns P. aeruginosa biofilms. In words: CDC bioreactor biofilm LR/kill, EDTA compounds at 100 ppm silver. In kind it is cell-based. As to conditions: 100 ppm of silver, exposed 24 hours. On the procedure: (§1) Microbial cultures were exposed to compounds for 24 hours. Compounds were diluted according to 100 ppm of silver. Biofilms were formed using the CDC bioreactor. Samples were performed in triplicate.

In a further data set the test system is S. aureus biofilms. The description is as above. Type of data set: cell-based. As to conditions: 100 ppm of silver, exposed 24 hours. Here is the method: as §1
The test system of data set [4] is cells. In words: Indirect cytotoxicity, agar diffusion method. Background: In agar diffusion tests the substance spreads into inoculated agar from a disc or well.
For data set [5], the system named is cells. Briefly: Direct cytotoxicity, Neutral Red Uptake assay.
For data set [6], the system named is cells.
Data set [7] concerns cells. The source holds these as a separate data set.

The values that follow come from patent US10874108B2, “Anti-microbial compositions” (5D HEALTH PROTECTION GROUP LTD, priority 2016, dated 2020).

Structures are written as SMILES. Where two headings read alike, the source gives them in different places.

As to `O=C([O-])CN(CCN(CC(=O)[O-])CC(=O)[O-])CC(=O)[O-].[Ag+].[Ag+].[Cu+2]` [Compound 2, Ag2CuEDTA], the “Displacement (%) Copper” value in [1] amounted to 41.37 ± 6.92%. Besides, in [1], the “Displacement (%) Silver” value worked out at 77.99 ± 3.90%. In addition, the “Number of colonies detected” value in data set [2] and in data set [3] was 0 Cfu/ml each time. Also, the “Kill %” value in the data set with P. aeruginosa biofilms turned out to be 99.95%; in the data set on S. aureus biofilms it was 99.99%. The LR in the data set with P. aeruginosa biofilms came out at 3.31 ± 0.01; with S. aureus biofilms, 4.0 ± 0.20. Also, the “Lysis Index” value with cells [4] (25 ppm), in the data set with cells [4] (50 ppm) and in the data set with cells [4] (100 ppm) was 1 each time. In addition, the “Zone Index” value in the data set on cells [4] (25 ppm), in the data set on cells [4] (50 ppm) and with cells [4] (100 ppm) was 2 in each case. The Interpretation entry was “Non cytotoxic (if the percentage viability is less than 70% of the untreated control, then the substance is considered cytotoxic)” in the data set with cells [5] (25 ppm); “Non cytotoxic (if the percentage viability is less than 70% of the untreated control, then the substance is considered cytotoxic)” with cells [5] (50 ppm); “Non cytotoxic (if the percentage viability is less than 70% of the untreated control, then the substance is considered cytotoxic)” in the data set on cells [5] (100 ppm). Besides, the “Percentage of Control/Percentage Viability (%)” value amounted to 72.21 ± 3.74% in the data set on cells [5] (25 ppm), 72.01 ± 7.41% in the data set with cells [5] (50 ppm) and 72.09 ± 17.57% in the data set on cells [5] (100 ppm).

For the compound `O=C([O-])CN(CCN(CC(=O)[O-])CC(=O)[O-])CC(=O)[O-].[Ag+].[Na+].[Zn+2]` [Compound 3, AgZnNaEDTA], the “Displacement (%) Silver” value in data set [1] came to 82.32 ± 5.63%. Also, in data set [1], the “Displacement (%) Zinc” value was found to be 47.33 ± 13.29 %. Also, the “Number of colonies detected” value in data set [2] and in data set [3] was 0 Cfu/ml in each case. The “Kill %” value was found to be 99.97% with P. aeruginosa biofilms and 100% with S. aureus biofilms. Further, the LR in the data set with P. aeruginosa biofilms was 3.51 ± 0.04; in the data set with P. aeruginosa biofilms (listed as Ag/Zn/NaEDTA) it was 3.5. Also, the percentage viability in the data set on cells [6] is reported as 46.46-63.08%. The “Lysis Index” value in the data set with cells [4] (25 ppm), in the data set with cells [4] (50 ppm) and with cells [4] (100 ppm) was 1 in each case. Moreover, the “Zone Index” value is recorded as 2 in the data set on cells [4] (25 ppm), 2 in the data set with cells [4] (50 ppm) and 3 in the data set on cells [4] (100 ppm).

For the compound `Oc1ccccc1` [Phenol], in the data set on cells [7], the “Lysis Index” value was found to be 3 and the “Zone Index” value was 5.
